{
  "source": "patent US11788146B2",
  "about": "“Methods for therapeutics prescreening in bodily fluids” (BARCODE DIAGNOSTICS LTD., priority 2017, dated 2023)",
  "key": {"[1]": {"tested_on": "triple negative breast cancer tumor", "test": "Barcode analysis in live and dead tumor cells after injection of liposome mixes", "type": "in vivo, BALB/c female mice", "settings": "5%, 1% or 0.1% of ETD liposome mixes; 48 hours post injection; patent regards it as likely artifact", "text": "FIGS. 1A-C: Detection of barcodes from liposome mixes with equal relative drug concentrations. Bar charts showing the potency of gemcitabine, cisplatin and doxorubicin against triple negative breast cancer tumors when the drugs are provided at (1A) 5%, (1B) 1%, and (1C) 0.1% of the effective therapeutic dose (ETD). Potency of the drugs was defined as the ratio of the amount of a barcode in dead cells to the amount of that barcode in live cells.\nEach drug has its own specific effective therapeutic dose […], and in order to test efficacy it is reasonable that each liposome mix (a mix of all three types of liposomes to be injected together) should have the same relative amount of each drug. That is, in order to determine an ideal dose, batches of mixed liposomes were generated in which all three drugs were present in a concentration that was either 5%, 1% or 0.1% of the effective therapeutic dose. Table 2 provides the amounts (in ul) of each liposome batch that were added to the mix in order to provide each total dose.\nCell from a triple negative breast cancer tumor were transplanted to the fat pad of BALB/c female mice and allowed to grow to form tumors in the mice. The mice were separated into 3 groups and then each group was injected with the 5%, 1% or 0.1% liposome mixes. […]"}, "4T1 cells [2]": {"tested_on": "4T1 cells", "settings": "cited from earlier work"}, "4T1 cells [3]": {"tested_on": "4T1 cells", "settings": "cited from earlier work", "remark": "listed apart in the source"}},
  "note": "Read-outs that look alike come from different tables or passages of the source.",
  "data": [
    {"smiles": "Nc1ccn([C@@H]2O[C@H](CO)[C@@H](O)C2(F)F)c(=O)n1", "note": "[Gemcitabine]", "values": [
      {"measurement": "Effectiveness relative to the other two drugs", "setting": "[1]", "value": "> 10", "unit": "fold"},
      {"measurement": "Potency (ratio of barcode in dead cells to barcode in live cells), ranking", "setting": "[1]", "value": "most effective treatment"},
      {"measurement": "Effect on tumor growth", "setting": "4T1 cells [2]; at later time points", "value": "not be effective"},
      {"measurement": "Effect on tumor growth", "setting": "4T1 cells [2]; within the first couple of days of treatment", "value": "retards tumor growth"}
    ]},
    {"smiles": "N.N.[Cl][Pt][Cl]", "note": "[cisplatin]", "values": [
      {"measurement": "Sensitivity of 4T1 cells", "setting": "4T1 cells [3]", "value": "highly sensitive"}
    ]},
    {"smiles": "COc1cccc2c1C(=O)c1c(O)c3c(c(O)c1C2=O)C[C@@](O)(C(=O)CO)C[C@@H]3O[C@H]1C[C@H](N)[C@H](O)[C@H](C)O1", "note": "[doxorubicin]", "values": [
      {"measurement": "Resistance of 4T1 cells", "setting": "4T1 cells [3]", "value": "become resistant"},
      {"measurement": "Sensitivity of 4T1 cells", "setting": "4T1 cells [3]", "value": "less so"}
    ]}
  ]
}
